# From patent publication US8568690B2, “MRI contrast agents and high-throughput screening by MRI” (The Board of Trustees of the University of Illinois, priority 2007, dated 2013)
# What was measured:
# [1] = test system: adenosine aptamer (linker-Adap) CLIO sensor; assay: Adenosine aptamer CLIO sensor, T2 weighted MRI and T2 relaxation time; format: binding; conditions: for change in contrast of sensor (selectivity control): sensor incubated with 5 mM nucleoside
# Experimental: SPIO nanoparticles were chosen as the contrast agents to functionalize by aptamers since it is efficient at dephasing the spins of neighboring water protons, leading to change in T2 [36, 37]. It has also been shown that oligonucleotide functionalized cross-linked dextran coated superparamagnetic iron oxide nanoparticles (CLIOs) form clusters when linked with a complementary sequence. The adenosine sensor comprised CLIO aggregates that are prepared using three components: CLIO functionalized with 3′- or 5′-thiol modified DNA, called 3′Adap-CLIO and 5′Adap-CLIO respectively and a linker DNA, called linker-Adap that can hybridize to both the 3′- and 5′Adap-CLIOs, leading to the formation of clusters.
# One segment of the linker is the sequence for the adenosine aptamer. Seven bases of this aptamer are involved in the hybridization with the 5′Adap-CLIO. In the presence of adenosine the aptamer undergoes structure switching in order to form the adenosine binding pocket, which results in disruption of base pairing interactions with 5′Adap-CLIO. The five remaining base pairs between the linker-Adap and the 5′Adap-CLIO are not enough to hold them together at room temperature leading to disassembly of clusters. The dispersed nanoparticles result in a higher T2 as compared to the clusters; and thus the adenosine induced disassembly can be monitored as an increase in T2 values and enhancement in brightness of T2 weighted MRI images.
# The prepared sensor was then aliquoted into the wells of a microplate, with progressively increasing amount of adenosine and a T2 weighted MRI image was obtained. An increase in adenosine concentration led to an increase in the brightness of the image, as illustrated in line a) of FIG. 6. This increase was attributed to the increase in T2 due to disassembly of CLIO clusters into smaller particles. It is worth noting that even at 10 μM adenosine a detectable change in contrast was observed.
# 250 μl of sample was aliquoted into the wells of a microplate and varying amounts of adenosine was added in each well. The samples with serum were prepared by adding 10% human serum. Volume change was compensated by addition of distilled water.
# [2] = biological target: Adenosine Deaminase (ADA) (Bos taurus, UniProt P56658); conditions: adenosine and test molecule, tris-acetate buffer pH 8.0 (FIG. 19) and human serum (FIG. 20)
# Chain of Adenosine Deaminase (ADA) (P56658 whole entry): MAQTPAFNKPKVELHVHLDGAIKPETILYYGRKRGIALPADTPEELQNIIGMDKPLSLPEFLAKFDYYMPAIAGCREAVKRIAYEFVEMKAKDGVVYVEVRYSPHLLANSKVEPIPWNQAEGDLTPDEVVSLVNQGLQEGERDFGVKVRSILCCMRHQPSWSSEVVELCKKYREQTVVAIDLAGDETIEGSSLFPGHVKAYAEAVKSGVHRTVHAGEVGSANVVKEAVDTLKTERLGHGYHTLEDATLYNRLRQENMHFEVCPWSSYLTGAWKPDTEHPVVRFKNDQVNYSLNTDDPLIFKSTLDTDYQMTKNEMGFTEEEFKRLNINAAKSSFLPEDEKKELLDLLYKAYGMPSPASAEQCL
# Experimental: The screening of ADA inhibitors can be monitored with an aptamer system whereby an MRI signal is generated when a molecule inhibits the ADA.
# For example, an aggregate of paramagnetic particles can be used to monitor the screening. To this end, a mixture including paramagnetic particles that are attached to oligonucleotides is prepared. A bridge including an aptamer that binds adenosine is also present in the mixture. If the tested molecule is not effective in inhibiting ADA, adenosine is transformed into inosine, and the complementary portions of the oligonucleotides are hybridized to the bridge. Aggregation of the particles into an aggregate follows, and an increase in MRI contrast is not observed.
# The resulting dehybridization leads to deaggregation of the aggregate, generating an MRI signal (FIG. 18).
# The screening was monitored by incubating with aggregates that included CLIO nanoparticles attached to polynucleotides and a bridge comprising an ADA-binding aptamer. The screening of FIG. 19 was carried out in the presence of tris-acetate buffer at pH 8.0. […]
# T2-weighted MRI images were obtained on a 4.7 T NMR instrument using a spin echo pulse sequence with variable echo time (TE=20−100 ms) and a repetition time (TR) of 2000 ms. Relaxation times were measured on the same instrument with the Carr-Purcell-Meiboom-Gill (CPMG) pulse sequence.
compound,measurement,setting,value
"Nc1ncnc2c1ncn2[C@@H]1O[C@H](CO)[C@@H](O)[C@H]1O [adenosine, Adenosine]",MRI contrast of sensor in serum,"[1]; 10% human serum, adenosine concentration gradient",the contrast within the concentration gradient increases
same,adenosine concentration at which a detectable change in contrast was observed,"[1]; T2 weighted MRI image, sensor ~20 μg Fe ml-1",10 µM
same,T2 relaxation time of sensor,"[1]; at 2.5 Mm adenosine, 36 ms at 0 adenosine",63 ms
erythro-9-(2-hydroxy-3-nonyl)adenine hydrochloride [EHNA],ADA inhibition read as deaggregation of aggregates / increase in MRI brightness,[2],inhibited the conversion of adenosine into inosine
Nc1nc2c(ncn2[C@@H]2O[C@H](CO)[C@@H](O)[C@H]2O)c(=O)[nH]1 [guanosine],change in contrast of sensor (selectivity control),[1],a significant change in contrast was not observed
O=c1ccn([C@@H]2O[C@H](CO)[C@@H](O)[C@H]2O)c(=O)[nH]1 [uridine],change in contrast of sensor (selectivity control),[1],a significant change in contrast was not observed
"Nc1ccn([C@@H]2O[C@H](CO)[C@@H](O)[C@H]2O)c(=O)n1 [control molecule 37, Cytidine]",change in contrast of sensor (selectivity control),[1],a significant change in contrast was not observed
